Experiment [1] relates to SARS-CoV and SARS-CoV-2 PL^pro protein. The following applies: known PL^pro inhibitors, literature values; cited from earlier work.
In experiment [2] the target is SARS-CoV-2 papain-like protease (PL^pro) (Severe acute respiratory syndrome coronavirus 2, UniProt P0DTD1). Kind of experiment: biochemical.
[3] abbreviates: 0.2 µM PL^pro, 30 µM substrate, 30 min preincubation at 25 °C, endpoint fluorescence after 2 h, triplicate, read-out: IC50.

Like-named read-outs stand apart in the source and are kept apart here.

Broadly, the IC50 is the concentration at which inhibition is half-maximal. Turning to “5-Amino-2-methyl-N-[2-(1-naphthyl)ethyl]-benzamide [GRL0617]”, in experiment [1], the IC50 is 1.61 ± 0.09 µM.

Turning to `C[C@H](c1cccc2ccccc12)N1CCC(C(=O)NCc2cccc(F)c2)CC1` [Hit 3K], the IC50 in experiment [1] was 0.15 ± 0.01 µM.

With `Cc1cc2nn(CC(=O)NCc3ccco3)c(=O)n2c(Nc2ccc(C)c(C)c2)n1` [Hit 372], the concentration for half-maximal inhibition (IC50) in experiment [2] (setting [3]) is 82 ± 34 µM.

`O=C(N/N=C/c1cccc(OC2CSC2)c1)c1ccccc1O` [Hit 826] gave a half-inhibitory concentration (IC50) in experiment [2] of 328 ± 33 µM.

Consider `Cn1nccc1-c1cc(C(=O)NCc2ccc(S(C)(=O)=O)cn2)c(=O)n(-c2cccc(C(F)(F)F)c2)c1` [Hit 903], for which the IC50 in experiment [2] (setting [3]) stood at 881 ± 41 µM.

In the case of `Cc1ccc(C)c(NC(=O)Cn2nc3n(C)c(=O)c4c(c(-c5ccccc5)cn4C)n3c2=O)c1` [Hit 922], in experiment [2] (setting [3]), the IC50 is 439 ± 43 µM.

`Nc1nc2[nH]cnc2c(=S)[nH]1` [Tioguanin (6-TG)]: the IC50 in experiment [1] is 72 ± 12 µM.

Values taken from publication PMC10893172, “Identification of Triazolopyrimidinyl Scaffold SARS-CoV-2 Papain-Like Protease (PL^pro) Inhibitor” (Pharmaceutics, 2024).
